Measured values as given in PMC4620497 (Scientific Reports, 2015).

Columns and labels:
MAP4K2 = target: T1, MAP4K2 (Homo sapiens, UniProt Q12851); experiment: KINOMEscan panel screen; assay type: binding; conditions: read-out: Percent Control(%)
T1 construct: purchased DiscoveRx KINOMEscan (Ambit Biosciences)

TGFBR1 = target: T2, TGFBR1 (Homo sapiens, UniProt P36897); experiment: KINOMEscan kinase binding assay (Kd)
T2 construct: DNA tag (qPCR read-out); purchased Ambit Biosciences (KINOMEscan service)

STK33 = target: T3, STK33 (Homo sapiens, UniProt Q9BYT3); experiment: KINOMEscan panel screen; assay type: binding; conditions: read-out: Percent Control(%)
T3 construct: purchased DiscoveRx KINOMEscan (Ambit Biosciences)

[1] = tested on: primary AML PBMCs SP cells; experiment: Hoechst 33342 side population (SP) cell assay; assay type: cell-based, human; conditions: 5 μM, 48 h; vehicle 0.5%
Source text: (§1) Flow cytometry and Hoechst 33342 dye efflux assays were used to examine the possible influences of SKLB-677 on leukemia SP cells. This method is based on the findings that stem cells and early progenitors are able to pump out Hoechst via the ATP-Binding Cassette (ABC) transporters. This property allows the observation of a cell population (called side population) that has low Hoechst fluorescence in the blue and red regions of the spectrum. In this study, the Hoechst SP cell assays were performed with human AML MV4-11 and KG-1 cells, as well as primary AML PBMCs. […] As shown in Fig. 4a and Supplementary Fig. S6, MV4-11, KG-1, and primary AML PBMCs contained about 22.3%, 3.1%, and 0.5% SP cells, respectively.
(§2) Supplementary Mat eri al and Methods […]
(§3) Reactions were monitored by thin la yer chrom atograph y (TLC) on M erck silica gel 60 F-254 thin la yer plates. 1H NMR and 13C NMR spectra were recorded on a Bruker AV -400 spectrometer at 400 MHz and 100 MHz, respectivel y. […]
(§4) Lo w -resolution and high-resolution mass spectral (MS) data were determined on an Agilent 1100 Series LCMS with UV detection at 254nm in low -reson ance electrospray mode (ESI). All final compounds were purified to >95% purity, as determined b y hi gh- performance liquid chromatograph y (HP LC). […]

KG-1 SP cells = experiment: Hoechst 33342 side population (SP) cell assay; assay type: cell-based, human; conditions: 5 μM, 48 h; vehicle 3.1%
Source text: as §1, §2, §3, §4

KIT(D816V) = target: T4, KIT(D816V) (Homo sapiens, UniProt P10721, D816V); experiment: KINOMEscan panel screen; assay type: binding; conditions: read-out: Percent Control(%)
T4 construct: purchased DiscoveRx KINOMEscan (Ambit Biosciences)
T4 sequence (P10721 26-976 D816V): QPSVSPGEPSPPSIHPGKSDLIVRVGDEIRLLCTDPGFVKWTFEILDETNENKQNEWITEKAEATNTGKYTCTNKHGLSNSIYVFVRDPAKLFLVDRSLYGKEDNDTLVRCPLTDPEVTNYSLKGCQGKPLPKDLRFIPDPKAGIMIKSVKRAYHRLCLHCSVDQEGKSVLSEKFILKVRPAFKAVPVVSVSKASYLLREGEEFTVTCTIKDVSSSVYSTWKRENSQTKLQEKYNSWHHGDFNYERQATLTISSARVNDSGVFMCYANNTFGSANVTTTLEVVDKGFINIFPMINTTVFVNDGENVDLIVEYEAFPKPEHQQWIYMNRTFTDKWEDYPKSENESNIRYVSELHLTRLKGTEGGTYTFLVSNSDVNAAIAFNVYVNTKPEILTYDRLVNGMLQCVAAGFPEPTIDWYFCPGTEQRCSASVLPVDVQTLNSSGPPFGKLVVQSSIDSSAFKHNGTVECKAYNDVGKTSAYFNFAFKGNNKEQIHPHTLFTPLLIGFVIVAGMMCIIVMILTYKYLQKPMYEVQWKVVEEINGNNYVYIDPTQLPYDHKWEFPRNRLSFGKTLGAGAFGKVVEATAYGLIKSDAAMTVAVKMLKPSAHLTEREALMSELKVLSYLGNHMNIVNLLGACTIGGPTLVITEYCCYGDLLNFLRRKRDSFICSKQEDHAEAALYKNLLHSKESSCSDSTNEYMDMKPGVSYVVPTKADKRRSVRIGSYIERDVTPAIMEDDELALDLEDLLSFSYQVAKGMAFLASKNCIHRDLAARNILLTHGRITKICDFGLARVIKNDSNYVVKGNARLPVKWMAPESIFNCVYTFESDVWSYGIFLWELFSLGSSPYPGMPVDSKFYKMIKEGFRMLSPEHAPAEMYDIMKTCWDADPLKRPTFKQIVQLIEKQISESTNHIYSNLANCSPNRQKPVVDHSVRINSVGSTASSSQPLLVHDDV

Miapaca-2 = experiment: MTT cell viability assay; conditions: Homo sapiens, MIA PaCa-2, 72 h
PRKD2 = target: T5, PRKD2 (Homo sapiens, UniProt Q9BZL6); experiment: KINOMEscan panel screen; assay type: binding; conditions: read-out: Percent Control(%)
T5 construct: purchased DiscoveRx KINOMEscan (Ambit Biosciences)
T5 sequence (Q9BZL6 whole entry): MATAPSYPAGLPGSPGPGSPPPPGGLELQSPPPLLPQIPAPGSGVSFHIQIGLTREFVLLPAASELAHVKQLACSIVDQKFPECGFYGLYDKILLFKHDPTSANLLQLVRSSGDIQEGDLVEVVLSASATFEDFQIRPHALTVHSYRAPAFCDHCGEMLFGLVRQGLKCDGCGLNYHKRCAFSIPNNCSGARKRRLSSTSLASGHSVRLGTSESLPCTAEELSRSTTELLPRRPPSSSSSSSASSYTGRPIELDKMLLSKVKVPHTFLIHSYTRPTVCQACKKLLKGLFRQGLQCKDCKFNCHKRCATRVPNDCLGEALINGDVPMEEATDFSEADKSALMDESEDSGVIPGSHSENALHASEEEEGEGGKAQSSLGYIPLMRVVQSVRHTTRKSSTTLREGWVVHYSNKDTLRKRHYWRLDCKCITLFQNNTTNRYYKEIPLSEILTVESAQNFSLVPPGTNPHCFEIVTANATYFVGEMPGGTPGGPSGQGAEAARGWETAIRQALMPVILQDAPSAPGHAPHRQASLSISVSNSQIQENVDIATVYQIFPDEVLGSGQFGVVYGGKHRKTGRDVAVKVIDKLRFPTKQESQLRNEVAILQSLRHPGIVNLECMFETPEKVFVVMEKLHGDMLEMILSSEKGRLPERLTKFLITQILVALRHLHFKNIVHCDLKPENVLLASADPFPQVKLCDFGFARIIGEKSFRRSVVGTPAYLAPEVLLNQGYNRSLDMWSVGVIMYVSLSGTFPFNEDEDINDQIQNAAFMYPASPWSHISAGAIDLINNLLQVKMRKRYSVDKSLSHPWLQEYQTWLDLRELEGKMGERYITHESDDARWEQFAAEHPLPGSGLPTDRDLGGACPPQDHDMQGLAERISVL

SBK1 = target: T6, SBK1 (Homo sapiens, UniProt Q52WX2); experiment: KINOMEscan panel screen; assay type: binding; conditions: read-out: Percent Control(%)
T6 construct: purchased DiscoveRx KINOMEscan (Ambit Biosciences)
T6 sequence (Q52WX2 whole entry): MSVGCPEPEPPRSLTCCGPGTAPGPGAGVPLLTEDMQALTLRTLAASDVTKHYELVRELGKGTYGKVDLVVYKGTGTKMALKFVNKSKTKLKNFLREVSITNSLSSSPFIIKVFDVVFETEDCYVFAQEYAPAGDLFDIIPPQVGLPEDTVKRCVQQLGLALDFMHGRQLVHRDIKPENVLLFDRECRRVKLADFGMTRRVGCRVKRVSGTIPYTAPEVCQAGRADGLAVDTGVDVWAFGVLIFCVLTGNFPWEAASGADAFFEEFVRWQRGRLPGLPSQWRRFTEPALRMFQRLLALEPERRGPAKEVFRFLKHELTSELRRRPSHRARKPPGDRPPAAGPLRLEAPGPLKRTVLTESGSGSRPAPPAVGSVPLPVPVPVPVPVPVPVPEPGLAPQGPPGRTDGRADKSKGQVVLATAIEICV

THP-1 = experiment: MTT cell viability assay; conditions: Homo sapiens, THP-1, 72 h
INSRR = target: T7, INSRR (Homo sapiens, UniProt P14616); experiment: KINOMEscan panel screen; assay type: binding; conditions: read-out: Percent Control(%)
T7 construct: purchased DiscoveRx KINOMEscan (Ambit Biosciences)

IKK-alpha = target: T8, IKK-alpha (Homo sapiens, UniProt O15111); experiment: KINOMEscan panel screen; assay type: binding; conditions: read-out: Percent Control(%)
T8 construct: purchased DiscoveRx KINOMEscan (Ambit Biosciences)

MAP4K5 = target: T9, MAP4K5 (Homo sapiens, UniProt Q9Y4K4); experiment: KINOMEscan panel screen; assay type: binding; conditions: read-out: Percent Control(%)
T9 construct: purchased DiscoveRx KINOMEscan (Ambit Biosciences)

MAST1 = target: T10, MAST1 (Homo sapiens, UniProt Q9Y2H9); experiment: KINOMEscan kinase binding assay (Kd)
T10 construct: purchased DiscoveRx KINOMEscan (Ambit Biosciences)
T10 sequence (Q9Y2H9 whole entry): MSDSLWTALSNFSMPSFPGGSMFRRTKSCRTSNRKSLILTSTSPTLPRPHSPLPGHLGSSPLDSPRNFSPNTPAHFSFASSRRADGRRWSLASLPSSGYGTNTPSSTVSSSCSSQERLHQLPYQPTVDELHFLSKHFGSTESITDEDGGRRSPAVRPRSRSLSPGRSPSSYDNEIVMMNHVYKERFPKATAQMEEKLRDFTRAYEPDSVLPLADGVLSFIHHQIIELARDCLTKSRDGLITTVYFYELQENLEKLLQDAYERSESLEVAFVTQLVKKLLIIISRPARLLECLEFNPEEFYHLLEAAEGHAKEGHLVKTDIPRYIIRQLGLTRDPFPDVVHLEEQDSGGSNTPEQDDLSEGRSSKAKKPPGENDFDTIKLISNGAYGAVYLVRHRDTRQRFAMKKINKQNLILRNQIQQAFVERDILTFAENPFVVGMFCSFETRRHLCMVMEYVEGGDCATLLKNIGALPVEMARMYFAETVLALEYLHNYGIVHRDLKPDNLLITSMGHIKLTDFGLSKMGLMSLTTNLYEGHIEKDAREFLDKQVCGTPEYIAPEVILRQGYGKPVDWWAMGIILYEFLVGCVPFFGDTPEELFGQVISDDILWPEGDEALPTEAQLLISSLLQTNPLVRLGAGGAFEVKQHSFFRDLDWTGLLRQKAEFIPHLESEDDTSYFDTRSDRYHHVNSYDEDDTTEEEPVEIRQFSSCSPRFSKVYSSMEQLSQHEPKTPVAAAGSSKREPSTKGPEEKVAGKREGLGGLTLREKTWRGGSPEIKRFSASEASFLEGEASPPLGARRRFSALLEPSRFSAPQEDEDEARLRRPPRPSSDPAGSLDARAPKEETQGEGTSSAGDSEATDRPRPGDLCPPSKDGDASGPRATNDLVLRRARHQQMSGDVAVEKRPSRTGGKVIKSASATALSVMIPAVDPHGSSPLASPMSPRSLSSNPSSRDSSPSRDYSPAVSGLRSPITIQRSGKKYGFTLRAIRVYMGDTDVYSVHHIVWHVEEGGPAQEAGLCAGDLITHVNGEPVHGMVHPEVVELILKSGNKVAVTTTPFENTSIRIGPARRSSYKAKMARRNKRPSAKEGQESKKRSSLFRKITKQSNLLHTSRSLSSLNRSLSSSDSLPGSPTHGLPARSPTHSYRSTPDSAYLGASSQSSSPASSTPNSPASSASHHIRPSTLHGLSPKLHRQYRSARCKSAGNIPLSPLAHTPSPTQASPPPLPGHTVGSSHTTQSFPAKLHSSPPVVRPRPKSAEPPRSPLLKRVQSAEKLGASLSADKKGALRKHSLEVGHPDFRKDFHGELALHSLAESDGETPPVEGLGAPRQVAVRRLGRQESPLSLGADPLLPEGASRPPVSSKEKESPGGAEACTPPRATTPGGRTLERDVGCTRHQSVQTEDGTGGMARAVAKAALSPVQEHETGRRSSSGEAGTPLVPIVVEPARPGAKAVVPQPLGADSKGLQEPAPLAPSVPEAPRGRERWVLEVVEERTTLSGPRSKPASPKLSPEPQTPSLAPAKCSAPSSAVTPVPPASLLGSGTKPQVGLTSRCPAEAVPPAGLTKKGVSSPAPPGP

TIE2 = target: T11, TIE2 (Homo sapiens, UniProt Q02763); experiment: KINOMEscan panel screen; assay type: binding; conditions: read-out: Percent Control(%)
T11 construct: purchased DiscoveRx KINOMEscan (Ambit Biosciences)

PANC-1 = experiment: MTT cell viability assay; conditions: Homo sapiens, PANC-1, 72 h
TAOK3 = target: T12, TAOK3 (Homo sapiens, UniProt Q9H2K8); experiment: KINOMEscan panel screen; assay type: binding; conditions: read-out: Percent Control(%)
T12 construct: purchased DiscoveRx KINOMEscan (Ambit Biosciences)

DCLK1 = target: T13, DCLK1 (Homo sapiens, UniProt O15075); experiment: KINOMEscan kinase binding assay (Kd)
T13 construct: purchased Ambit Biosciences (KINOMEscan)

KIT(V559D,V654A) = target: T14, KIT(V559D,V654A) (Homo sapiens, UniProt P10721, V559D/V654A); experiment: KINOMEscan panel screen; assay type: binding; conditions: read-out: Percent Control(%)
T14 construct: purchased DiscoveRx KINOMEscan (Ambit Biosciences)
T14 sequence (P10721 26-976 V559D/V654A): as the sequence (P10721 26-976 D816V) above, with V534D, V629A, V791D counted along it

NDR2 = target: T15, NDR2 (Homo sapiens, UniProt Q9Y2H1); experiment: KINOMEscan panel screen; assay type: binding; conditions: read-out: Percent Control(%)
T15 construct: purchased DiscoveRx KINOMEscan (Ambit Biosciences)

CAMK4 = target: T16, CAMK4 (Homo sapiens, UniProt Q16566); experiment: KINOMEscan panel screen; assay type: binding; conditions: read-out: Percent Control(%)
T16 construct: purchased DiscoveRx KINOMEscan (Ambit Biosciences)
T16 sequence (Q16566 1-473): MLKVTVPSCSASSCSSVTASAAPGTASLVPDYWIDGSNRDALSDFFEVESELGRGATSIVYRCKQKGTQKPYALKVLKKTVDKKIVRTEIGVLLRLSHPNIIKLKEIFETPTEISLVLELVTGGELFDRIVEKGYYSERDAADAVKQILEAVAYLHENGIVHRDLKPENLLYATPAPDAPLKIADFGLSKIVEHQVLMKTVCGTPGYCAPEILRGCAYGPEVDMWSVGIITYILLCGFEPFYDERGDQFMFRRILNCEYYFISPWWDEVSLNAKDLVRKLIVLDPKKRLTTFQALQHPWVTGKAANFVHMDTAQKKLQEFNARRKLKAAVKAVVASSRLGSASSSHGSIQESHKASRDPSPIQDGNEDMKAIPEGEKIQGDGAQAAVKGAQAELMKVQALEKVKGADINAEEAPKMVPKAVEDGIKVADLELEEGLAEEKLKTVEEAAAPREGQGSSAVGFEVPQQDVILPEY

T1 sequence (Q12851 whole entry): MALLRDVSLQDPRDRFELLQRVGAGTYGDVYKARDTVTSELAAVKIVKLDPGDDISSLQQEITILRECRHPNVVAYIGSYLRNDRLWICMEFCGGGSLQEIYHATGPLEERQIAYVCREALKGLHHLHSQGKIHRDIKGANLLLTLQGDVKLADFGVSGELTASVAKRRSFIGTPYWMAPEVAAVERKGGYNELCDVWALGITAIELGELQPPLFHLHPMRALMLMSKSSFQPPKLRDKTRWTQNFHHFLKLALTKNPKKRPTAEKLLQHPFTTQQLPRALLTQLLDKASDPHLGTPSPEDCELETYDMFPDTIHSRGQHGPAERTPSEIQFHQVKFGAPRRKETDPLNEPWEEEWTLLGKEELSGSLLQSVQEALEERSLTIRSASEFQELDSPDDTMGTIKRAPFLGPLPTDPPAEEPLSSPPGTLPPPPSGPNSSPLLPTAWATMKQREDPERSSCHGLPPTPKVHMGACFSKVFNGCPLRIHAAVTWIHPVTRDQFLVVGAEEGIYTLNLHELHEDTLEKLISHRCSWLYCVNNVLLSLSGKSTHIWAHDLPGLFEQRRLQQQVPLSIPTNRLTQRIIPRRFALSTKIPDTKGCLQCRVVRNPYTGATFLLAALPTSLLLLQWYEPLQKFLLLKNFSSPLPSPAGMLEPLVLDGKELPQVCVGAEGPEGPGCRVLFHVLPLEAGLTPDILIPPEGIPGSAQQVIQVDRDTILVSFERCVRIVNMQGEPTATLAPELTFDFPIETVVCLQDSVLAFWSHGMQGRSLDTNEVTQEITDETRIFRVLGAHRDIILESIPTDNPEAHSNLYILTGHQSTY

SMILES: CC(C)(C)c1cc(NC(=O)Nc2ccc(Oc3ncnc4[nH]ncc34)c(F)c2)no1 [SKLB-677, 1-(4-(1H-pyrazolo[3,4-d]pyrimidin-4-yloxy)-3-fluorophenyl)-3-(5-tert-butylisoxazol-3-yl)urea]
- remaining binding at 10 µM (MAP4K2): 28%
- Kd (TGFBR1): > 10 µM
- remaining binding at 10 µM (STK33): 0.05%
- SP cells [1]: could almost eliminate SP cells
- SP cells (KG-1 SP cells): could almost eliminate SP cells
- remaining binding at 10 µM (KIT(D816V)): 0.2%
- IC50 (Miapaca-2): > 10 µM
- remaining binding at 10 µM (PRKD2): 28%
- remaining binding at 10 µM (SBK1): 80%
- IC50 (THP-1): > 10 µM
- remaining binding at 10 µM (INSRR): 42%
- remaining binding at 10 µM (IKK-alpha): 75%
- remaining binding at 10 µM (MAP4K5): 2%
- Kd (MAST1): > 10 µM
- remaining binding at 10 µM (TIE2): 0.2%
- IC50 (PANC-1): > 10 µM
- remaining binding at 10 µM (TAOK3): 0.55%
- Kd (DCLK1): > 10 µM
- remaining binding at 10 µM (KIT(V559D,V654A)): 1.8%
- remaining binding at 10 µM (NDR2): 56%
- remaining binding at 10 µM (CAMK4): 85%
